What all share (experiment): NCI-60 cell line screen, 48 h
Test [1] concerns NCI-H522.
The subject of test [2] is SK-MEL-5.
The subject of test [3] is COLO 205.
Test [4] concerns RXF 393.
Test [5] has as its system A549.
Test [6] concerns OVCAR-8.
For test [7], the system named is HOP-62.
Test [8] concerns MOLT-4.
The test system of test [9] is OVCAR-3.
In test [10] the test system is SK-MEL-28.
The test system of test [11] is RPMI-8226.
The subject of test [12] is U-251.
The test system of test [13] is NCI-H460.
Test [14] deals with KM12.
In test [15] the test system is CAKI-1.
Test [16] has as its system CCRF-CEM.
The test system of test [17] is Malme-3M.
Test [18] deals with SK-MEL-2.
Test [19] concerns M14.
The subject of test [20] is SNB-19.

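A five-concentration, 48-hour dose response in 96-well plates underlies each endpoint, interpolated linearly between surrounding concentrations. Here, GI50 denotes the concentration required for 50% inhibition of growth.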 Activity calls are given as the source filed them. Cut-off read from the data, not from the text of the source: active = GI50 up to about 1.1 µM and inactive = higher.

On to `C=C1C(=O)O[C@@H]2/C=C(\C)CC/C=C(\C)CC[C@@]12O`, for which the GI50 in [1] is 0.371 µM (active); in test [2] it was 4.59 µM (inactive); in test [3] it was 1.84 µM (inactive); in test [4], 0.185 µM (active); in [5], 11.6 µM (inactive); in test [6], 1.91 µM (inactive). Moreover, the GI50 is 5.07 µM (inactive) in [7]; 1.41 µM (inactive) in test [8]; 2.4 µM (inactive) in test [9]; 3.99 µM (inactive) in [10]; 0.948 µM (active) in test [11]; 7.36 µM (inactive) in [12]. For the same compound, the GI50 in test [13] is 9.55 µM (inactive); in [14] it was 8.95 µM (inactive); in test [15], 1.35 µM (inactive); in [16], 0.149 µM (active); in test [17], 1.53 µM (inactive); in test [18], 9.38 µM (inactive). The GI50 is 3.7 µM (inactive) in [19] and 5.43 µM (inactive) in [20].

As to `Cc1ccc(C=C(C(=O)O)C(=O)O)o1`, the GI50 in test [1], in test [2], in [3], in [4], in [5] and in [6] was > 100 µM (inactive) in each case. Also, the GI50 in [7], in [8], in test [9], in test [10], in test [11] and in [12] was > 100 µM (inactive) in each case. In addition, the GI50 in [13], in [14], in [15], in test [16], in test [17] and in test [18] was > 100 µM (inactive) in each case. Besides, the GI50 in test [19] and in test [20] was > 100 µM (inactive) each time.

With `CCCCCCCCCCCCCCCCNc1nc(=O)n(C2CC(O)C(CO)O2)cc1F` (stereo not given), the GI50 is 5.28 µM (inactive) in test [1]; 11.6 µM (inactive) in [2]; 12.7 µM (inactive) in [3]; 13.5 µM (inactive) in [4]; 0.94 µM (active) in test [5]; 1.82 µM (inactive) in test [6]. The GI50 was 7.52 µM (inactive) in test [7]; 4.72 µM (inactive) in [8]; 13.9 µM (inactive) in [9]; 12.7 µM (inactive) in [10]; 15.8 µM (inactive) in [11]; 11.7 µM (inactive) in test [12]. Also, the GI50 in [13] is 10.7 µM (inactive); in test [14] it was 13.8 µM (inactive); in test [15], 2.1 µM (inactive); in [16] it was > 10 µM (inactive); in [17], 10.8 µM (inactive); in [18], 19.6 µM (inactive). Moreover, the GI50 was 8.57 µM (inactive) in [19] and 13.7 µM (inactive) in test [20].

As to `COc1cc2c(oc(=O)c3cc4cc([Si](C)(C)C)oc4c(OC)c32)c2cccc(O)c12`, the GI50 in [1], in test [2], in test [3], in test [4], in test [5] and in [6] was > 100 µM (inactive) each time. Also, the GI50 in test [7], in [8], in [9], in test [10], in test [11] and in [12] was > 100 µM (inactive) each time. Besides, the GI50 in [13], in [14], in test [15], in test [16], in test [17] and in test [18] was > 100 µM (inactive) in each case. Also, the GI50 in [19] and in test [20] was > 100 µM (inactive) each time.

As for `C[N+](C)(CCO)CCN1c2ccccc2Sc2ccccc21`, the GI50 in test [1], in test [2], in test [3], in test [4], in [5] and in [6] was > 10 µM (inactive) in each case. Moreover, the GI50 in test [7], in test [8], in [9], in [10], in [11] and in test [12] was > 10 µM (inactive) throughout. For the same compound, the GI50 in test [13], in test [14], in test [15], in test [16], in test [17] and in test [18] was > 10 µM (inactive) each time. Also, the GI50 in [19] and in [20] was > 10 µM (inactive) in each case.

`CC(=O)Nc1ccc2oc(=O)c3ccccc3c2c1`: the GI50 in test [1], in test [2], in test [3], in [4], in test [5] and in test [6] was > 100 µM (inactive) each time. The GI50 in test [7], in [8], in test [9], in [10], in test [11] and in test [12] was > 100 µM (inactive) each time. Also, the GI50 in [13], in test [14], in [15], in test [16], in test [17] and in [18] was > 100 µM (inactive) in each case. Moreover, the GI50 in test [19] and in test [20] was > 100 µM (inactive) in each case.
